Experimental data as given in US4331670A (priority 1979, dated 1982).

Tests used:
Tetranychus telarius (L) = assay: Test 6: mortality of larvae and adults of Tetranychus telarius on kidney bean leaf; format: in vivo; settings: foliar, 72 h, leaf dipped, wettable powder of Composition No. 5, three days after treatment, read-out: Percent mortality
Protocol: Young seedling of kidney bean treated to cut off leaves except one primordial leaf was transplanted in a cup and about 30 of larvae and adults of Tetranychus telarius (L) were inoculated on the primordial leaf. This was dipped for 10 seconds in each solution obtained by diluting each wettable powder of Composition No. 5 containing each active ingredient with water at the concentration of 800 ppm and was dried in air and was kept in a constant temperature chamber with lighting at 28° C. Three days after the treatment, mortality was measured and each percent mortality was calculated as follows. [formula]

Pyricularia orzae = assay: whole plant or invertebrate; format: in vivo, Pyricularia orzae (rice plant, Chukyo Asahi); settings: in Oryza sativa, 120 h, read-out: Protective value
[1] = system: Collectotrichum lagenarium; assay: Test 3: protective value on cucumber inoculated with Collectotrichum lagenarium; format: in vivo, Collectotrichum lagenarium (cucumber plant, Suyo); settings: 500 ppm, 10 ml sprayed; lesions six days after inoculation
Protocol: In each unglazed pot having a diameter of 9 cm, cucumber plant (Suyo) was cultured. At one leaf stage, 10 ml. of each solution of each active ingredient having a concentration of 500 ppm was sprayed by a spray gun. After maintaining the pot in a green-house at 24° to 25° C. for one day, each spore suspension of Collectotrichum lagenarium was sprayed. Six days after the inoculation, number of lesions on the first leaf of seedling was observed. The protective value was calculated as Test 1.

Rhizoctonia solani = assay: whole plant or invertebrate; format: in vivo, Rhizoctonia solani (rice plant, Chukyo Asahi); settings: in Oryza sativa, 120 h, read-out: Preventive value
Phytophthora infestans = format: cell-based; settings: PDA medium; fungus A: Phytophthora infestans
Callosobruchus chinensis = assay: Test 7: mortality of adults of Callosobruchus chinensis on film in Petri-dish; format: in vivo; settings: 400 μg per Petri-dish of 9 cm, 25° C., 24 hours, read-out: Percent mortality
Protocol: Each active ingredient was dissolved in acetone to prepare each solution having the specific concentration. 1 Ml. of the solution (400 μg. of each active ingredient) was uniformly adhered on the inner bottom surface of Petri-dish having a diameter of 9 cm to form a film. In the dish, 15 of adults of Callosobruchus chinensis were charged and the dish was covered with a cap and kept in a constant temperature chamber at 25° C. for 24 hours. Each percent mortality was calculated as that of Test 6.

Sphaerotheca fuliginea = assay: whole plant or invertebrate; format: in vivo, Sphaerotheca fuliginea (cucumber plant, Suyo); settings: Podosphaera fuliginea, in Cucumis sativus, 240 h; read-out: Protective value
Alternaria solani = assay: Test 5: minimum growth inhibition concentration on PDA medium; format: cell-based; settings: fungus C: Alternaria solani
Protocol: (§1) A mixture of 9 ml. of a potato-glucose-agar medium (PDA medium) and 1 ml. of each active ingredient was poured into each Petri-dish to be solidified. […] The following fungi were used.

Diaporthe citri = assay: as above; format: cell-based; settings: fungus B: Diaporthe citri
Protocol: as §1

Venturia inaequalie = assay: as above; format: cell-based; settings: fungus D: Venturia inaequalie
Protocol: as §1

Plasmopara viticola = assay: whole plant or invertebrate; format: in vivo, Plasmopara viticola (cucumber plant, Suyo); settings: in Cucumis sativus, 144 h, read-out: Protective value
Botrytis cinerea = assay: Test 9: protective value on cucumber inoculated with Botrytis cinerea; format: in vivo, Botrytis cinerea (cucumber plant, Suyo); settings: 72 h, 250 ppm, 10 ml sprayed, lesion length three days after inoculation
Protocol: In each unglazed pot having a diameter of 9 cm, cucumber plant (Suyo) was cultured. At one leaf stage, 10 ml. of each solution of each active ingredient having a concentration of 250 ppm was sprayed by a spray gun. After maintaining the pot in a green-house at 24° to 25° C. for one day, a disc (punched agar disc) obtained by culturing Botrytis cinerea on a potato-glucose-agar medium (PDA medium) was put on the leaf of cucumber to inoculate them. Three days after the inoculation, lengths of lesions were measured and each protective value was calculated as Test 2.
In accordance with the test, except the concentration of the active ingredient was decreased, the comparative tests of Compound No. 7 and Reference compound were carried out.

SMILES	mortality at 800 ppm (Tetranychus telarius (L)) [%]	pest or weed control at 100 ppm (Pyricularia orzae) [%]	Protective value [1] [%]	pest or weed control at 100 ppm (Rhizoctonia solani) [%]	minimum growth inhibition concentration (Phytophthora infestans)	mortality at 400 µg/dish (Callosobruchus chinensis) [%]	pest or weed control at 500 ppm (Sphaerotheca fuliginea) [%]	minimum growth inhibition concentration (Alternaria solani)	minimum growth inhibition concentration (Diaporthe citri)	minimum growth inhibition concentration (Venturia inaequalie)	pest or weed control at 500 ppm (Plasmopara viticola) [%]	pest or weed control at 250 ppm (Botrytis cinerea) [%]
O=[N+]([O-])c1cc(C(F)(F)F)cc([N+](=O)[O-])c1Nc1ncc(Cl)cc1Cl [compound 3, N-(3,5-dichloro-2-pyridyl)-2,6-dinitro-4-trifluoromethylaniline]	100	100	100	100	100	100	100	10	100	< 1	–	–
O=[N+]([O-])c1cc(C(F)(F)F)c(Cl)c([N+](=O)[O-])c1Nc1ncc(Cl)cc1Cl [compound 4, N-(3,5-dichloro-2-pyridyl)-2,6-dinitro-3-chloro-4-trifluoromethylaniline]	–	100	100	93	> 100	–	–	100	100	< 1	100	–
Cc1nc(Nc2c([N+](=O)[O-])cc(C(F)(F)F)c(Cl)c2[N+](=O)[O-])c(Cl)cc1Cl [compound 8, N-(3,5-dichloro-6-methyl-2-pyridyl)2,6-dinitro-3-chloro-4-trifluoromethylaniline]	–	100	100	90	–	–	–	–	–	–	–	–
O=[N+]([O-])c1cc(C(F)(F)F)c(Cl)c([N+](=O)[O-])c1Nc1ccc(Cl)nc1Cl [compound 14]	–	100	100	100	–	–	95	–	–	–	–	95
O=[N+]([O-])c1cc(C(F)(F)F)c(Cl)c([N+](=O)[O-])c1Nc1ncc(Br)cc1Cl [compound 20]	–	100	–	–	–	–	–	–	–	–	100	–
O=[N+]([O-])c1cc(C(F)(F)F)cc([N+](=O)[O-])c1Nc1nc(Cl)c(Br)cc1C(F)(F)F [compound 26]	100	100	90	100	–	–	100	–	–	–	93	85
O=[N+]([O-])c1cc(C(F)(F)F)c(Cl)c([N+](=O)[O-])c1Nc1nc(Cl)c(C(F)(F)F)cc1Br [compound 33]	–	100	–	100	–	–	100	–	–	–	85	100
O=[N+]([O-])c1cc(C(F)(F)F)cc([N+](=O)[O-])c1Nc1nc(Cl)c(C(F)(F)F)cc1Cl [compound 34]	100	100	–	100	–	–	100	–	–	–	83	100
CC(=O)N(c1ncc(C(F)(F)F)cc1Cl)c1c([N+](=O)[O-])cc(C(F)(F)F)c(Cl)c1[N+](=O)[O-] [compound 88, N-acetyl-N-(3-chloro-5-trifluoromethyl-2-pyridyl)-2,6-dinitro-3-chloro-4-trifluoromethylaniline]	–	–	–	100	–	–	–	–	–	–	100	–
